Measured values taken from the NIST ThermoML archive (doi:10.1007/s10765-011-1087-7).

Legend:
[1] = refractive index (Na D-line) (dimensionless); xn = mol fraction of the nth substance listed; conditions: 101 kPa, Liquid
[2] = xn = mol fraction of the nth substance listed; conditions: 101 kPa, Liquid; for speed of sound: Pulse-echo method

Clc1ccc(Cl)c(Cl)c1 [1,2,4-trichlorobenzene] + CCCCCCC(C)O
Conditions	mass density, [2] [kg/m3]	refractive index, [1]	speed of sound, [2] [m/s]	viscosity, [2] [mPa·s]
298.15 K, x1 = 0.0762	863.97	1.4309	1301.7	5.912
298.15 K, x1 = 0.1303	896.31	1.4366	1296.7	5.452
298.15 K, x1 = 0.2045	939.57	1.4436	1290.1	4.912
298.15 K, x1 = 0.2713	977.28	1.4501	1283.7	4.455
298.15 K, x1 = 0.3461	1018.61	1.4569	1278	3.981
298.15 K, x1 = 0.4173	1057.62	1.4631	1273.2	3.575
298.15 K, x1 = 0.4857	1095.63	1.4698	1269.8	3.223
298.15 K, x1 = 0.5454	1129.39	1.4758	1267	2.955
298.15 K, x1 = 0.6115	1167.72	1.4834	1264.2	2.699
298.15 K, x1 = 0.6798	1209.26	1.4919	1261.9	2.462
298.15 K, x1 = 0.7466	1252.54	1.5009	1259.9	2.281
298.15 K, x1 = 0.8183	1302	1.5119	1259.2	2.118
298.15 K, x1 = 0.8713	1341.45	1.521	1260.4	2.035
298.15 K, x1 = 0.9361	1392.95	1.534	1264.2	1.945
298.15 K, x1 = 1	1448.41	1.548	1272	1.926
303.15 K, x1 = 0.0762	860.11	1.4285	1283.9	4.79
303.15 K, x1 = 0.1303	892.4	1.4337	1279.1	4.507
303.15 K, x1 = 0.2045	935.51	1.4406	1273	4.124
303.15 K, x1 = 0.2713	973.11	1.4469	1266.9	3.783
303.15 K, x1 = 0.3461	1014.26	1.4539	1261.6	3.433
303.15 K, x1 = 0.4173	1053.06	1.4607	1256.9	3.12
303.15 K, x1 = 0.4857	1090.83	1.4676	1253.5	2.849
303.15 K, x1 = 0.5454	1124.39	1.474	1250.5	2.632
303.15 K, x1 = 0.6115	1162.51	1.4818	1248	2.405
303.15 K, x1 = 0.6798	1203.8	1.4905	1245.6	2.205
303.15 K, x1 = 0.7466	1246.93	1.4999	1244.1	2.045
303.15 K, x1 = 0.8183	1296.19	1.511	1243.5	1.909
303.15 K, x1 = 0.8713	1335.49	1.5202	1244.9	1.821
303.15 K, x1 = 0.9361	1386.92	1.5329	1248.7	1.769
303.15 K, x1 = 1	1442.43	1.546	1256.4	1.76
308.15 K, x1 = 0.0762	855.92	1.4271	1266.3	3.886
308.15 K, x1 = 0.1303	887.97	1.4325	1261.9	3.674
308.15 K, x1 = 0.2045	930.81	1.4396	1255.8	3.413
308.15 K, x1 = 0.2713	968.5	1.4459	1250.3	3.169
308.15 K, x1 = 0.3461	1009.82	1.4525	1244.9	2.915
308.15 K, x1 = 0.4173	1048.71	1.4591	1240.3	2.674
308.15 K, x1 = 0.4857	1086.14	1.4658	1237.1	2.456
308.15 K, x1 = 0.5454	1119.57	1.4718	1234.6	2.296
308.15 K, x1 = 0.6115	1157.41	1.4792	1232	2.117
308.15 K, x1 = 0.6798	1198.89	1.4877	1229.9	1.961
308.15 K, x1 = 0.7466	1241.6	1.4969	1228.4	1.827
308.15 K, x1 = 0.8183	1290.6	1.5078	1228	1.725
308.15 K, x1 = 0.8713	1329.97	1.517	1229.3	1.666
308.15 K, x1 = 0.9361	1381.4	1.5295	1233.4	1.628
308.15 K, x1 = 1	1436.45	1.543	1240.9	1.617
